Tests used:
Assay type in all cases: cell-based
Brd4 (L) [1] = target: T1, Brd4 (L) (Homo sapiens, UniProt O60885); assay: Concentration-dependent BET degradation, immunoblot; conditions: 4 h, 1 nM-10 μM
T1 construct: endogenous in cells; host or cells: HEK293 (CRL-1573), HeLa (CCL-2)
Method: (§1) Immunoblotting. Proteins were separated by SDS-PAGE on NuPage 4-12% Bis-Tris gels, followed by transfer to Amersham Protran 0.45 NC nitrocellulose membrane (GE Healthcare) using wet transfer. Membranes were blocked using 5% w/v milk in Tris-buffered saline (TBS) with 0.1% Tween-20. Blots were probed (overnight at 4 °C) using anti-Brd2 (Abcam ab139690, 1:2,000 dilution), anti-Brd3 (Abcam ab50818, 1:500 dilution), and anti-Brd4 (Abcam ab128874, 1:1,000 dilution) primary antibodies, as appropriate. The next day, blots were washed with TBST and incubated (1 h at Room temperature) with anti-Tubulin hFAB-rhodamine (BioRad, 12004166) primary antibody, and either anti-rabbit IRDye 800CW (Licor 1:1,000 dilution) or anti-mouse IRDye 800CW (Licor 1:1,000 dilution) secondary antibody. Blots were developed using a Bio-Rad ChemiDoc MP Imaging System, and band quantification was performed using Image Studio software (LiCor). Band intensities were normalized to the tubulin loading control and reported as % of the average 0.1% DMSO vehicle intensity. Degradation data was plotted and analysed using Prism (Graphpad, version 8).
(§2) HeLa (5×10^5) and HEK293 (1×10^6) cells were seeded in standard 6-well plates (2 mL medium) overnight before treatment with compounds at the desired concentration (1 nM-10 μM), with a final DMSO concentration of 0.1% v/v. After 4 h treatment time, cells were washed with DPBS (Gibco) and lysed using 85 μL RIPA buffer (Sigma-Aldrich) supplemented with cOmplete Mini EDTA-free protease inhibitor cocktail (Roche) and benzonase. Lysates were clarified by centrifugation (20000 g, 10 min, 4° C.) and the total protein content of the supernatant was quantified using a Bradford colorimetric assay. Samples were prepared using equal amounts of total protein and LDS sample buffer (Invitrogen). Band intensities were normalized to the tubulin loading control and reported as % of the average 0.1% DMSO vehicle intensity. Degradation data was plotted and analysed using Prism (Graphpad, version 8).
(§3) MZ1 and 11JQ17 were used at 1 μM for positive and negative controls, respectively. […] For the table, Dmax: +(Dmax≤25%); ++(26%≤Dmax≤50%); +++(51%≤Dmax≤70%); ++++(71%≤DC50: A (DC50≤50 nM); B (51 nM≤DC50≤500 nM); C (501 nM≤DC50).

Brd2 [2] = target: T2, Brd2 (Homo sapiens, UniProt P25440); assay: Time-dependent BET degradation, immunoblot; conditions: HEK293, Brd2, 1 μM; for Dmax at 1 µM: 0-24 hrs; for Abs. T1/2: time to deplete 50% of the protein relative to DMSO; for T1/2: time to reach 50% of the Dmax
T2 sequence (P25440 whole entry): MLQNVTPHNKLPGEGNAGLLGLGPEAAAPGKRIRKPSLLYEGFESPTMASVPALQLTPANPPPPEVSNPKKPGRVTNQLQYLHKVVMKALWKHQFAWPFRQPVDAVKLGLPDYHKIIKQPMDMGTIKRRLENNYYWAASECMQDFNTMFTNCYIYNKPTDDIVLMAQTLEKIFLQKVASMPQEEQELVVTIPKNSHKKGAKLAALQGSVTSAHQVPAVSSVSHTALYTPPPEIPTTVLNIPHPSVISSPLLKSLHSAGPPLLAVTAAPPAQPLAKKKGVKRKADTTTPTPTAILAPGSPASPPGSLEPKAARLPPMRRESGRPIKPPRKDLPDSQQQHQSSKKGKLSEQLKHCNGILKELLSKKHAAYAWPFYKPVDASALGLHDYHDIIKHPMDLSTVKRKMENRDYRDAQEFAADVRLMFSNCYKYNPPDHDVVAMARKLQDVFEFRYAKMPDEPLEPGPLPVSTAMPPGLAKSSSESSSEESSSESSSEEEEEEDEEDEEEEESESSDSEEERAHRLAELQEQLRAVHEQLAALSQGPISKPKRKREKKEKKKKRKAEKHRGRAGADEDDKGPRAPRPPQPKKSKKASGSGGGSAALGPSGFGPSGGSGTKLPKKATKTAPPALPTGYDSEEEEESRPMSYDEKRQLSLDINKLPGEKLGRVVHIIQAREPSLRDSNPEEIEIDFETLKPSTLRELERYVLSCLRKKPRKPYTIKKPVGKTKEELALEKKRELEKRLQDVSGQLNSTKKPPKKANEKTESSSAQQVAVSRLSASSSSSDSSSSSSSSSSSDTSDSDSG
Method: as §1
as §2, with “HEK293” for “HeLa (5×10^5) and HEK293”, “(0.5×10^6)” for “(1×10^6)”, “1 μM concentration,” for “the desired concentration (1 nM-10 μM),”, “incubation for the desired time (0-24 hrs),” for “4 h treatment time,”, “complete” for “cOmplete”
(§4) MZ1 and 11JQ17 were used at 1 μM (4 h) for positive and negative controls, respectively. […]

Brd3 [3] = target: T3, Brd3 (Homo sapiens, UniProt Q15059); assay: Time-dependent BET degradation, immunoblot; conditions: HEK293, Brd3, 1 μM; for Dmax at 1 µM: 0-24 hrs; for Abs. T1/2: time to deplete 50% of the protein relative to DMSO; for T1/2: time to reach 50% of the Dmax
T3 sequence (Q15059 whole entry): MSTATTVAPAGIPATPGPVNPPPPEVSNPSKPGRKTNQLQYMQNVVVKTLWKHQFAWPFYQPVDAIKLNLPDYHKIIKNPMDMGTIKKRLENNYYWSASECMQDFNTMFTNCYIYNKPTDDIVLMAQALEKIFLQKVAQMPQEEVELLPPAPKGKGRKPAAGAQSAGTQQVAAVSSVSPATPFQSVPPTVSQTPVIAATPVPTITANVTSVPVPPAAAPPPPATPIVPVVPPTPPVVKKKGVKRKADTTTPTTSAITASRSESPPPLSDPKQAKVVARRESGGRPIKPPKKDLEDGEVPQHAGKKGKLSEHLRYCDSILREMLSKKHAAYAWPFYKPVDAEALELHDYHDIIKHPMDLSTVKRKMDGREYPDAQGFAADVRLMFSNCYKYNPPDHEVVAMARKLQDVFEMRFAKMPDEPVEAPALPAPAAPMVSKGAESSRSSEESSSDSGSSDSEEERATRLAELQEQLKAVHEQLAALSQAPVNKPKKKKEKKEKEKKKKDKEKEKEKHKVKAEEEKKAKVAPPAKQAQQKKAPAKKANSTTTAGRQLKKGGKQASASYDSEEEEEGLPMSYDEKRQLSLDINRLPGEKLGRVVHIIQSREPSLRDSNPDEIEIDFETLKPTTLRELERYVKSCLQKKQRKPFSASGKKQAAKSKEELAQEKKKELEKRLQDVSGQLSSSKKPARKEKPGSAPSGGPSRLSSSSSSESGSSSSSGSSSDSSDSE
Method: as §1
as §2, with “HEK293” for “HeLa (5×10^5) and HEK293”, “(0.5×10^6)” for “(1×10^6)”, “1 μM concentration,” for “the desired concentration (1 nM-10 μM),”, “incubation for the desired time (0-24 hrs),” for “4 h treatment time,”, “complete” for “cOmplete”
as §4

Brd4 (L) [4] = target: T1, Brd4 (L); assay: Time-dependent BET degradation, immunoblot; parameters: Dmax: dose or concentration left out as unconfirmed; conditions: HEK293, Brd4 (L); for Dmax: 0-24 hrs; for Abs. T1/2 / T1/2: 1 μM; for Abs. T1/2: time to deplete 50% of the protein relative to DMSO; for T1/2: time to reach 50% of the Dmax
Method: as §1
as §2, with “HEK293” for “HeLa (5×10^5) and HEK293”, “(0.5×10^6)” for “(1×10^6)”, “1 μM concentration,” for “the desired concentration (1 nM-10 μM),”, “incubation for the desired time (0-24 hrs),” for “4 h treatment time,”, “complete” for “cOmplete”
as §4

Brd4 (S) = target: T4, Brd4 (S) (Homo sapiens, UniProt O60885); assay: Time-dependent BET degradation, immunoblot; parameters: Dmax: dose or concentration left out as unconfirmed; conditions: HEK293, Brd4 (S); for Dmax: 0-24 hrs; for Abs. T1/2 / T1/2: 1 μM; for Abs. T1/2: time to deplete 50% of the protein relative to DMSO; for T1/2: time to reach 50% of the Dmax
T4 construct: endogenous in cells; host or cells: HEK293 (CRL-1573), HeLa (CCL-2)
Method: as §1
as §2, with “HEK293” for “HeLa (5×10^5) and HEK293”, “(0.5×10^6)” for “(1×10^6)”, “1 μM concentration,” for “the desired concentration (1 nM-10 μM),”, “incubation for the desired time (0-24 hrs),” for “4 h treatment time,”, “complete” for “cOmplete”
as §4

Brd2, Brd3 and Brd4 = assay: Immunoblot analysis of BET protein levels in HEK293 cells; conditions: for Brd2, Brd3 and Brd4 protein levels (FIG. 5): HEK293, 1 μM, various time points; for Brd2, Brd3 and Brd4 protein levels (FIG. 4): increasing concentrations
Method: Cell culture. HeLa (CCL-2) and HEK293 (CRL-1573) cells were purchased from ATCC and cultured in DMEM medium (Gibco) supplemented with 10% FBS, 100 μg/mL penicillin/streptomycin and L-glutamine. Cells were grown at 37° C. and 5% CO2 and were kept no longer than 30 passages. All cell lines were routinely tested for mycoplasma contamination using MycoAlert kit from Lonza.
HeLa (5×10^5) and HEK293 (1×10^6) cells were seeded in standard 6-well plates (2 mL medium) overnight before treatment with 1 μM compound with a final DMSO concentration of […]. After 4 h incubation time, cells were washed with DPBS (Gibco) and lysed using 85 μL RIPA buffer (Sigma-Aldrich) supplemented with cOmplete Mini EDTA-free protease inhibitor cocktail (Roche) and benzonase. Lysates were clarified by centrifugation (20000 g, 10 min, 4° C.) and the total protein content of the supernatant was quantified using a Bradford colorimetric assay. Samples were prepared using equal amounts of total protein and LDS sample buffer (Invitrogen).
as §1, §2
HEK293 (0.5×10^6) cells were seeded in standard 6-well plates (2 mL medium) overnight before treatment with compounds at 1 μM concentration, with a final DMSO concentration of 0.1% v/v. […] Lysates were clarified by centrifugation (20000 g, 10 min, 4° C.) and the total protein content of the supernatant was quantified using a Bradford colorimetric assay. […] Degradation data was plotted and analysed using Prism (Graphpad, version 8).

Brd2 [5] = target: T2, Brd2; assay: Concentration-dependent BET degradation, immunoblot; parameters: endogenous in cells; host or cells: HEK293 (CRL-1573), HeLa (CCL-2); conditions: 1 nM-10 μM
Method: as §1, §2, §3

Brd3 [6] = target: T3, Brd3; assay: as above; parameters: endogenous in cells; host or cells: HEK293 (CRL-1573), HeLa (CCL-2); conditions: 1 nM-10 μM
Method: as §1, §2, §3

Cc1sc2c(c1C)C(c1ccc(Cl)cc1)=N[C@@H](CC(=O)NCCCCNC(=O)c1cc(SC(=O)c3ccccc3)c3ncc(C(=O)NCCc4nccs4)cc3c1)c1nnc(C)n1-2 [Example 11JQ16]
DC50 (Brd4 (L) [1]; HEK293, Brd4 (L)): ≤ 50 nM | Dmax (Brd4 (L) [1]; HEK293, Brd4 (L)): ≥ 71% | DC50 (Brd4 (L) [1]; HeLa): 51 to 500 nM | Dmax (Brd4 (L) [1]; HeLa): ≥ 71% | Dmax at 1 µM (Brd2 [2]): 75% | Abs. T1/2 (Brd2 [2]): 2.7 h | T1/2 (Brd2 [2]): 1.7 h | Dmax at 1 µM (Brd3 [3]): 95% | Abs. T1/2 (Brd3 [3]): 1.9 h | T1/2 (Brd3 [3]): 1.6 h | Dmax (Brd4 (L) [4]): 98% | Abs. T1/2 (Brd4 (L) [4]): 1.0 h | T1/2 (Brd4 (L) [4]): 1.0 h | Dmax (Brd4 (S)): 95% | Abs. T1/2 (Brd4 (S)): 0.6 h | T1/2 (Brd4 (S)): 0.6 h | Brd2, Brd3 and Brd4 protein levels (FIG. 5) (Brd2, Brd3 and Brd4): depletion of Brd2, Brd3 and Brd4 protein levels | Brd2, Brd3 and Brd4 protein levels (FIG. 4) (Brd2, Brd3 and Brd4; 4 h): depletion of Brd2, Brd3 and Brd4 protein levels | DC50 (Brd2 [5]; HEK293, Brd2, 4 h): 51 to 500 nM | Dmax (Brd2 [5]; HEK293, Brd2, 4 h): ≥ 71% | DC50 (Brd2 [5]; HeLa, Brd2, 4 h): 51 to 500 nM | Dmax (Brd2 [5]; HeLa, Brd2, 4 h): 51 to 70% | DC50 (Brd3 [6]; HEK293, Brd3, 4 h): ≤ 50 nM | Dmax (Brd3 [6]; HEK293, Brd3, 4 h): ≥ 71% | DC50 (Brd3 [6]; HeLa, Brd3, 4 h): ≥ 501 nM | Dmax (Brd3 [6]; HeLa, Brd3, 4 h): 51 to 70%

Cc1sc2c(c1C)C(c1ccc(Cl)cc1)=N[C@@H](CC(=O)NCCCCNC(=O)c1cc(S)c3ncc(C(=O)NCCc4nccs4)cc3c1)c1nnc(C)n1-2 [Example 11JQ7]
DC50 (Brd4 (L) [1]; HEK293, Brd4 (L)): 51 to 500 nM | Dmax (Brd4 (L) [1]; HEK293, Brd4 (L)): ≥ 71% | DC50 (Brd4 (L) [1]; HeLa): ≤ 50 nM | Dmax (Brd4 (L) [1]; HeLa): ≥ 71% | Dmax at 1 µM (Brd2 [2]): 80% | Abs. T1/2 (Brd2 [2]): 3.2 h | T1/2 (Brd2 [2]): 1.8 h | Dmax at 1 µM (Brd3 [3]): 95% | Abs. T1/2 (Brd3 [3]): 3.4 h | T1/2 (Brd3 [3]): 2.9 h | Dmax (Brd4 (L) [4]): 98% | Abs. T1/2 (Brd4 (L) [4]): 1.2 h | T1/2 (Brd4 (L) [4]): 1.2 h | Dmax (Brd4 (S)): 99% | Abs. T1/2 (Brd4 (S)): 1.9 h | T1/2 (Brd4 (S)): 1.9 h | Brd2, Brd3 and Brd4 protein levels (FIG. 1) (Brd2, Brd3 and Brd4; HEK293, 1 μM compound, 4 h, relative to 0.1% DMSO): approaching the potency of PROTAC MZ1 | DC50 (Brd2 [5]; HEK293, Brd2, 4 h): 51 to 500 nM | Dmax (Brd2 [5]; HEK293, Brd2, 4 h): ≥ 71% | DC50 (Brd2 [5]; HeLa, Brd2, 4 h): ≥ 501 nM | Dmax (Brd2 [5]; HeLa, Brd2, 4 h): ≥ 71% | DC50 (Brd3 [6]; HEK293, Brd3, 4 h): ≥ 501 nM | Dmax (Brd3 [6]; HEK293, Brd3, 4 h): ≥ 71% | DC50 (Brd3 [6]; HeLa, Brd3, 4 h): 51 to 500 nM | Dmax (Brd3 [6]; HeLa, Brd3, 4 h): ≥ 71%

Cc1sc2c(c1C)C(c1ccc(Cl)cc1)=N[C@@H](CC(=O)NCCOCCNC(=O)c1cc(SC(=O)c3ccccc3)c3ncc(C(=O)NCCc4nccs4)cc3c1)c1nnc(C)n1-2 [Example 11JQ15]
DC50 (Brd4 (L) [1]; HEK293, Brd4 (L)): 51 to 500 nM | Dmax (Brd4 (L) [1]; HEK293, Brd4 (L)): 51 to 70% | DC50 (Brd4 (L) [1]; HeLa): 51 to 500 nM | Dmax (Brd4 (L) [1]; HeLa): 51 to 70% | Dmax at 1 µM (Brd2 [2]): 50% | Abs. T1/2 (Brd2 [2]): 5.7 h | T1/2 (Brd2 [2]): 1.1 h | Dmax at 1 µM (Brd3 [3]): 70% | Abs. T1/2 (Brd3 [3]): 2.6 h | T1/2 (Brd3 [3]): 1.5 h | Dmax (Brd4 (L) [4]): 90% | Abs. T1/2 (Brd4 (L) [4]): 1.1 h | T1/2 (Brd4 (L) [4]): 0.8 h | Dmax (Brd4 (S)): 90% | Abs. T1/2 (Brd4 (S)): 1.2 h | T1/2 (Brd4 (S)): 0.9 h | Brd2, Brd3 and Brd4 protein levels (FIG. 5) (Brd2, Brd3 and Brd4): depletion of Brd2, Brd3 and Brd4 protein levels | Brd2, Brd3 and Brd4 protein levels (FIG. 4) (Brd2, Brd3 and Brd4; 4 h): depletion of Brd2, Brd3 and Brd4 protein levels | DC50 (Brd2 [5]; HEK293, Brd2, 4 h): 51 to 500 nM | Dmax (Brd2 [5]; HEK293, Brd2, 4 h): 26 to 50% | DC50 (Brd2 [5]; HeLa, Brd2, 4 h): 51 to 500 nM | Dmax (Brd2 [5]; HeLa, Brd2, 4 h): 26 to 50% | DC50 (Brd3 [6]; HEK293, Brd3, 4 h): 51 to 500 nM | Dmax (Brd3 [6]; HEK293, Brd3, 4 h): 26 to 50% | DC50 (Brd3 [6]; HeLa, Brd3, 4 h): 51 to 500 nM | Dmax (Brd3 [6]; HeLa, Brd3, 4 h): 26 to 50%
